Laboratory results taken from publication PMC9396613 (ACS chemical biology, 2022).
Bridge positions count the residues as written; N and C are the ends. Ends that are not written are not given here.

Assays:
[1] = tested on: rat KCa2.2a channels; conditions: read-out: EC50 on rat KCa2.2a (mean ± SD); cited from earlier work
[2] = tested on: ET cells; experiment: Cilia length measurement in ET cells by immunostaining; assay type: cell-based, mouse
[3] = target: T1, KCa2.3 channels (Homo sapiens, UniProt Q9UGI6); experiment: Inside-out patch clamp, potentiation of human KCa2.3 channels expressed in HEK293 cells; assay type: cell-based
[4] = tested on: ET cells; experiment: Flow-induced cytosolic Ca2+ measurements (Fura-2AM) in ET cells; assay type: cell-based, mouse; conditions: 20 μM
[5] = target: T1, KCa2.3 channels; experiment: Inside-out patch clamp, inhibition of KCa2.3 channels by negative modulator; assay type: cell-based; conditions: read-out: IC50 for inhibition of KCa2.3 channels; 0.5 μM Ca2+; mean ± SD, n = 5

In the case of `Cc1cc(C)n(-c2nc(Nc3ccc(Cl)cc3)c3ncn(C)c3n2)n1` [NS13001], the EC50 [1] is given as 2.2 ± 0.5 µM.
In the case of “apamin (CNCKAPETALCARRCQQH-NH2; disulfide 1-11, 3-15; UniProt P01500 28-45, looked up)”, the “effect on cilia elongation by compound 4” value ([2]; apamin 50 nM with compound 4 20 μM, Arl13b marker) is reported as “completely abolished the elongating effect”.
In the case of `Cc1cc(NC2CCCCC2)nc(-n2nc(C)cc2C)n1` [CyPPA], the EC50 [1] is listed as 7.5 ± 1.6 µM, the “Emax on KCa2.3 channels (I / Imax (%))” value ([3]; current at −90 mV normalized to that obtained at 10 μM Ca2+, mean ± SD) is listed as 96 ± 10% and the “selectivity for human KCa2.3 channels over rat KCa2.2a channels” value ([3]; ratio of EC50 values, Table 1) is listed as ~ 2.7 fold. The EC50 ([3]; read-out: EC50 on human KCa2.3 (mean ± SD), inside-out patch, HEK293 cells, 0.15 μM Ca2+, currents at −90 mV, mean ± SD) was 2700 ± 600 nM.
With `CC(=O)Nc1cccc2[nH]c(N[C@H](C)c3cccc(C(F)(F)F)c3)nc12` [AP14145] the “flow-induced peak Ca2+ values compared with control” value [4] was “reduced”, the “flow-induced cytosolic Ca2+ transients compared with control” value ([4]; shear stress 5 dyn/cm2) was “much weaker Ca^2+ transients” and the IC50 [5] was 970 ± 390 nM. It also gave a cilia length ([2]; 20 μM for two days, acetylated-α-tubulin staining, mean ± SD) of 2.8 ± 0.1 μm.
